Assay results reported in patent publication US9937183B2, “Antimicrobial compounds and methods of making and using the same” (priority 2013, dated 2018).
Converted amounts (≈) assume the structure as drawn. Read-outs that look alike come from different tables or passages of the source.

How the values were obtained:
Assay type in all cases: cell-based
E. coli ATCC25922 = assay: MIC, microtiter-based liquid assay (CLSI); details: Escherichia coli
E. coli 1705878 = assay: MIC, microtiter-based liquid assay (CLSI); details: Escherichia coli, MDR strain
E. coli MG1655 parent = assay: MIC, microtiter-based liquid assay (CLSI); details: Escherichia coli
E. coli CAG12184 TolC = assay: MIC, microtiter-based liquid assay (CLSI); details: Escherichia coli, CAG12184TOLC
[1] = test system: S. pneumoniae 02J1175 Mef(A); assay: MIC, microtiter-based liquid assay (CLSI); details: Streptococcus pneumoniae
S. aureus 11540 MRSA = assay: MIC, microtiter-based liquid assay (CLSI); details: Staphylococcus aureus
K. pneumoniae 1705949 = assay: MIC, microtiter-based liquid assay (CLSI); details: Klebsiella pneumoniae, MDR strain
K. pneumoniae 1705966 = assay: MIC, microtiter-based liquid assay (CLSI); details: Klebsiella pneumoniae
A. baumannii 1705936 = assay: MIC, microtiter-based liquid assay (CLSI); details: Acinetobacter baumannii, MDR strain
A. baumannii 1705943 = assay: MIC, microtiter-based liquid assay (CLSI); details: Acinetobacter baumannii
P. aeruginosa ATCC27853 = assay: MIC, microtiter-based liquid assay (CLSI); details: Pseudomonas aeruginosa
P. aeruginosa 1705886 = assay: MIC, microtiter-based liquid assay (CLSI); details: Pseudomonas aeruginosa
P. aeruginosa 1705904 = assay: MIC, microtiter-based liquid assay (CLSI); details: Pseudomonas aeruginosa, MDR strain
[2] = test system: E. faecium A6349 VanA + LNZ-R; assay: MIC, microtiter-based liquid assay (CLSI); details: Enterococcus faecium
B. anthracis = assay: microbe, parasite or virus in culture; details: Bacillus anthracis; for MIC50: read-out: B. anthracis MIC50; for MIC90: read-out: B. anthracis MIC90; for MIC: read-out: B. anthracis MIC Range
Y. pestis = assay: microbe, parasite or virus in culture; details: Yersinia pestis; for MIC50: read-out: Y. pestis MIC50; for MIC90: read-out: Y. pestis MIC90; for MIC: read-out: Y. pestis MIC Range
B. mallei = assay: microbe, parasite or virus in culture; details: Burkholderia mallei; for MIC50: read-out: B. mallei MIC50; for MIC90: read-out: B. mallei MIC90; for MIC: read-out: B. mallei MIC Range
F. tularensis = assay: microbe, parasite or virus in culture; details: Francisella tularensis; for MIC50: read-out: F. tularensis MIC50; for MIC90: read-out: F. tularensis MIC90; for MIC: read-out: F. tularensis MIC Range
B. pseudomallei = assay: microbe, parasite or virus in culture; details: Burkholderia pseudomallei; for MIC50: read-out: B. pseudomallei MIC50; for MIC90: read-out: B. pseudomallei MIC90; for MIC: read-out: B. pseudomallei MIC Range
[3] = ATCC25922, read-out: MIC E. coli ATCC25922 + 50% HS
[4] = ATCC25922, read-out: MIC E. coli ATCC25922

Row | Structure (SMILES) | MIC (E. coli ATCC25922; [3]) [µg/mL] | MIC (E. coli ATCC25922; [4]) [µg/mL] | MIC (E. coli 1705878) [µg/mL] | MIC (E. coli MG1655 parent) [µg/mL] | MIC (E. coli CAG12184 TolC) [µg/mL] | MIC [1] [µg/mL] | MIC (S. aureus 11540 MRSA) [µg/mL] | MIC (K. pneumoniae 1705949) [µg/mL] | MIC (K. pneumoniae 1705966) [µg/mL] | MIC (A. baumannii 1705936) [µg/mL] | MIC (A. baumannii 1705943) [µg/mL] | MIC (P. aeruginosa ATCC27853) [µg/mL] | MIC (P. aeruginosa 1705886) [µg/mL] | MIC (P. aeruginosa 1705904) [µg/mL] | MIC [2] [µg/mL] | MIC50 (B. anthracis) [µg/mL] | MIC90 (B. anthracis) [µg/mL] | MIC (B. anthracis) [µg/mL] | MIC50 (Y. pestis) [µg/mL] | MIC90 (Y. pestis) [µg/mL] | further results
1 | C[C@H](N)CCCc1cc(Cl)c(F)c(-c2cc3cn(-c4ccc([C@H](CCNc5nccs5)NCCCNC(=N)N)cc4)c(=O)nc3[nH]2)c1 [Compound 15] | 0.5 | 0.5 (≈ 0.736 µM) | 2 (≈ 2.94 µM) | 1 (≈ 1.47 µM) | 0.25 (≈ 0.368 µM) | 0.25 (≈ 0.368 µM) | 0.5 (≈ 0.736 µM) | 1 (≈ 1.47 µM) | 0.25 (≈ 0.368 µM) | 1 (≈ 1.47 µM) | 0.5 (≈ 0.736 µM) | 8 (≈ 11.8 µM) | 4 (≈ 5.89 µM) | 8 (≈ 11.8 µM) | 2 | 0.12 (≈ 0.177 µM) | 0.12 (≈ 0.177 µM) | 0.03 to 0.25 (≈ 0.0442 to 0.368 µM) | 0.5 (≈ 0.736 µM) | 1 (≈ 1.47 µM) | MIC (Y. pestis): 0.06 to 1 µg/mL (≈ 0.0883 to 1.47 µM); MIC50 (B. mallei): 0.06 µg/mL (≈ 0.0883 µM); MIC90 (B. mallei): 0.25 µg/mL (≈ 0.368 µM); MIC (B. mallei): 0.03 to 0.5 µg/mL (≈ 0.0442 to 0.736 µM); MIC50 (F. tularensis): 0.06 µg/mL (≈ 0.0883 µM); MIC90 (F. tularensis): 0.25 µg/mL (≈ 0.368 µM); MIC (F. tularensis): 0.03 to 2 µg/mL (≈ 0.0442 to 2.94 µM); MIC50 (B. pseudomallei): 8 µg/mL (≈ 11.8 µM); MIC90 (B. pseudomallei): 16 µg/mL (≈ 23.6 µM); MIC (B. pseudomallei): 4 to 32 µg/mL (≈ 5.89 to 47.1 µM)
2 | C[C@H](N)CCCc1cc(Cl)c(F)c(-c2cc3cn(-c4ccc([C@H](N)CCCCNC(=N)N)cc4)c(=O)nc3[nH]2)c1 [Compound 16] | 0.125 | 0.125 (≈ 0.22 µM) | 0.5 (≈ 0.882 µM) | 0.25 (≈ 0.441 µM) | 0.06 (≈ 0.106 µM) | 0.25 (≈ 0.441 µM) | 0.25 (≈ 0.441 µM) | 2 (≈ 3.53 µM) | 0.25 (≈ 0.441 µM) | 2 (≈ 3.53 µM) | 0.125 (≈ 0.22 µM) | 4 (≈ 7.05 µM) | 4 (≈ 7.05 µM) | 8 (≈ 14.1 µM) | 2 | ≤ 0.03 | 0.06 (≈ 0.106 µM) | 0.03 to 0.12 (≈ 0.0529 to 0.212 µM) | 0.12 (≈ 0.212 µM) | 0.25 (≈ 0.441 µM) | MIC (Y. pestis): 0.03 to 0.5 µg/mL (≈ 0.0529 to 0.882 µM); MIC50 (B. mallei): ≤ 0.03 µg/mL; MIC90 (B. mallei): 0.06 µg/mL (≈ 0.106 µM); MIC (B. mallei): 0.03 to 0.06 µg/mL (≈ 0.0529 to 0.106 µM); MIC50 (F. tularensis): ≤ 0.03 µg/mL; MIC90 (F. tularensis): 0.12 µg/mL (≈ 0.212 µM); MIC (F. tularensis): 0.03 to 1 µg/mL (≈ 0.0529 to 1.76 µM); MIC50 (B. pseudomallei): 4 µg/mL (≈ 7.05 µM); MIC90 (B. pseudomallei): 8 µg/mL (≈ 14.1 µM); MIC (B. pseudomallei): 2 to 16 µg/mL (≈ 3.53 to 28.2 µM)
3 | C[C@H](NCCCNC(=N)N)c1ccc(-n2cc3cc(-c4cc(CCC[C@@H](N)CF)cc(Cl)c4F)[nH]c3nc2=O)cc1 [Compound 17] | 0.5 | 0.25 (≈ 0.427 µM) | 2 (≈ 3.42 µM) | 1 (≈ 1.71 µM) | 0.125 (≈ 0.214 µM) | 0.125 (≈ 0.214 µM) | 0.25 (≈ 0.427 µM) | 1 (≈ 1.71 µM) | 0.125 (≈ 0.214 µM) | 1 (≈ 1.71 µM) | 0.25 (≈ 0.427 µM) | 8 (≈ 13.7 µM) | 4 (≈ 6.84 µM) | 8 (≈ 13.7 µM) | 0.5 | 0.25 (≈ 0.427 µM) | 0.25 (≈ 0.427 µM) | 0.03 to 0.5 (≈ 0.0513 to 0.855 µM) | 0.25 (≈ 0.427 µM) | 0.5 (≈ 0.855 µM) | MIC (Y. pestis): 0.03 to 0.5 µg/mL (≈ 0.0513 to 0.855 µM); MIC50 (B. mallei): 0.06 µg/mL (≈ 0.103 µM); MIC90 (B. mallei): 0.25 µg/mL (≈ 0.427 µM); MIC (B. mallei): 0.03 to 0.25 µg/mL (≈ 0.0513 to 0.427 µM); MIC50 (F. tularensis): ≤ 0.03 µg/mL; MIC90 (F. tularensis): 0.12 µg/mL (≈ 0.205 µM); MIC (F. tularensis): 0.03 to 1 µg/mL (≈ 0.0513 to 1.71 µM); MIC50 (B. pseudomallei): 8 µg/mL (≈ 13.7 µM); MIC90 (B. pseudomallei): 16 µg/mL (≈ 27.3 µM); MIC (B. pseudomallei): 1 to 16 µg/mL (≈ 1.71 to 27.3 µM)
